In patent publication US6747038B2, “Phenanthridine derivatives and antitumoral medicaments containing phenanthridine” (priority 2000, dated 2004):
Where a name gives a salt, the structure may show the parent alone.

Test system: panel of 12 human pathogenic tumour cell lines of six types of cancer
Experiment: in vivo-hollow fiber assay of the National Cancer Institute
Conditions: for NCI criteria fulfilled: (a) total points higher than 20, (b) subcutaneous points higher than 8, (c) cell kill characteristics; for Points (sum) / Points (intraperitoneal) / Points (subcutaneous): NCI point system; for Points (sum): 2 points per administration giving at least 50% reduction of tumour cell growth, maximum 96, hollow fibers in nude mice, intraperitoneal plus subcutaneous, 4 doses at 24 h intervals, two concentrations; for Points (intraperitoneal): intraperitoneally implanted hollow fibers in nude mice; for Points (subcutaneous): subcutaneously implanted hollow fibers in nude mice; for Cell killing properties: vital tumour cell mass of at least one cell line less than the starting value after treatment
Experimental: In order to examine the pharmacological properties, these compounds (BP-7, BP-8, BP-D8) as well as 6-Amino-11-(2′,4′-dimethoxyphenyl)benzo[c]-phenanthridine perchlorate (BP-D3) [PCT/WO 97/14683] were examined in an “in vivo-hollow fiber assay” of the National Cancer Institute (NCI), Bethesda, Md., USA.
Compounds were tested against a panel of 12 human pathogenic tumour cell lines of six types of cancer (non-small cell lung cancer, melanoma, breast cancer, ovarian cancer, colon cancer, CNS cancer).
The cell lines were cultivated in polyvinylidenfluorine hollow fibers which are permeable to small molecules and which were implanted into nude mice. Three hollow fibers were implanted every animal intraperitoneally and subcutaneously which means three tumor cell lines could be examined in each animal in two physiological sites.
The animals were treated four times with a dose of the test substance with a time interval of 24 hours. For this purpose, every compound was administered at two concentrations. At the end of the treatment the hollow fibers were regained and the number of the vital tumour cells or rather of the protein biomass was determined photometrically by an MTT-Formazan-Assay in order to determine the inhibition of growth by the phenanthridines. Mice with prepaired tumour cell cultures in hollow fibers which were only treated by solvent served as control.
The evaluation of test results is based on a point system given by NCI.
Each administration of a test substance which leads to a reduction of the tumour cell growth of at least 50% is given a score of two points. The maximum number of points for one compound is therefore 96 points (12 cell lines*2 implantation sites*2 concentrations of the test substance*2 points). In addition for further specification the results on subcutaneously and intraperitoneally implanted hollow fibers are treated separately. There are three criteria given by NCI. A test substance in the “in vivo-hollow fiber assay” has to fulfill at least one criterion in order to be regarded as suitable for further tests:
(a) the total sum of the points from intraperitoneal and subcutaneous application must be higher than 20.
(b) The total sum of the points of the subcutaneous application must be higher than 8.
(c) After the treatment the vital tumour cell mass of at least one cell line must be less than the starting value (cell kill characteristics).

For `COc1cc(C2Cc3ccccc3-c3nc(N)c4ccccc4c32)cc(OC)c1OC` (stereo not drawn) [BP-7, 6-Amino-11,12dihydro-11-(3′,4′,5′-trimethoxyphenyl)benzo[c]-phenanthridine hydrochloride], the NCI criteria fulfilled was “(b) and (c)”, the “Points (sum)” value was 16 Points and the “Points (intraperitoneal)” value was 6 Points. The “Points (subcutaneous)” value was 10 Points and the Cell killing properties was “Yes”.
With `COc1ccc(C2Cc3ccccc3-c3nc(N)c4ccccc4c32)c(OC)c1OC` (stereo not drawn) [BP-8, 6-Amino-11,12dihydro-11-(2′,3′,4′-trimethoxyphenyl)benzo[c]-phenanthridine hydrochloride] the NCI criteria fulfilled was “(b) and (c)”, the “Points (sum)” value was 20 Points and the “Points (intraperitoneal)” value was 10 Points. For the same molecule, the “Points (subcutaneous)” value was 10 Points and the Cell killing properties was “Yes”.
`COc1ccc(-c2cc3ccccc3c3nc(N)c4ccccc4c23)c(OC)c1.[O-][Cl+3]([O-])([O-])O` [BP-D3, 6-Amino-11-(2′,4′-dimethoxyphenyl)benzo[c]phenanthridine perchlorate, reference compound] was tested, and the NCI criteria fulfilled was “(c) only”, the “Points (sum)” value was 10 Points and the “Points (intraperitoneal)” value was 2 Points. For the same molecule, the “Points (subcutaneous)” value was 8 Points and the Cell killing properties was “Yes”.
With `COc1cc(-c2cc3ccccc3c3nc(N)c4ccccc4c23)cc(OC)c1OC` [BP-D7, 6-Amino-11-(3′,4′,5′-trimethoxyphenyl)benzo[c]phenanthridine perchlorate] the NCI criteria fulfilled was “a, b and c”, the “Points (sum)” value was 28 Points and the “activity in the in vivo-hollow fiber assay” value (compared with all tested phenanthridines) was “highest activity”. For the same molecule, the “Points (intraperitoneal)” value was 14 Points, the “Points (subcutaneous)” value was 14 Points and the Cell killing properties was “Yes”.
